Test: recombinant barcode read abundance after kanamycin selection (control-corrected) (log10(CPM+1)); higher = more efficient recombination; sequences stand for … in AGTGCAGAGAAAATCGGCCAGTTTTCTCTGCCTGCAGTCCGCATGCCGT…AGATTTATGCAGCGGACTGCCTTTCTCCCAAAGTGATAAACCGGACAGTATCATGGACCGGTTTTCCCGGTAATCCGTATTTGCAAGGTTGGTTTCACT; site = the 11-nt target
In short: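 Recombination efficiency in this pooled E. coli screen uses counts per million of barcodes at recombinant junctions, averaged and corrected against the control. The reported form is log10(CPM+1). Two replicates were plated on chloramphenicol/ampicillin LB agar as control and two on chloramphenicol/ampicillin/kanamycin with 0.1 mM IPTG.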

Row | Sequence | recombinant barcode read abundance (log10)
1 | TTCATGTCTTGGGTTCTAACCTGTTGCCT (site TTCATGTCTAG) | 0.811
2 | TTCCGTCCTTGGGTTCTAACCTGTTGCTT (site CGAGTGACTTG) | 0.0499
3 | TTCCGTCCTTGGGTTCTAACCTGTTGCTT (site TTCCGTCCTAA) | 0.0911
4 | TTCTATGCTTGGGTTCTAACCTGTTGCCT (site TCCTGTGCTAG) | 0.24
5 | TTCTATGCTTGGGTTCTAACCTGTTGCCT (site TTCTATGCTAG) | 0.187
6 | TTCTTCCCTTGGGTTCTAACCTGTTGCCT (site TTCTTCCCTAG) | 0.235
7 | TTCTTCCCTTGGGTTCTAACCTGTTGCCT (site TTGTACCCTAG) | 0.1
8 | TTGAATGCTTGGGTTCTAACCTGTTGCCT (site TTGAATGCTAG) | 1.15
9 | TTGAATGCTTGGGTTCTAACCTGTTGCCT (site TTGACTGCTAG) | 0.0516
10 | TTGAATGCTTGGGTTCTAACCTGTTGCCT (site TTGAGTGCTAG) | 0.0419
11 | TTGAATGCTTGGGTTCTAACCTGTTGCCT (site TTGATTGCTAG) | 0.214
12 | TTGAGGACTTGGGTTCTAACCTGTTGCGT (site TTGAGGACTAC) | 2.22
13 | TTGAGGACTTGGGTTCTAACCTGTTGCGT (site TTGAGGACTTG) | 0.147
14 | TTGATTACTTGGGTTCTAACCTGTTGCCA (site TTGAGTACTCG) | 0.0598
15 | TTGATTACTTGGGTTCTAACCTGTTGCCA (site TTGATTACTTG) | 0.0149
16 | TTGCCGACTTGGGTTCTAACCTGTTGCCA (site TTGACGACTTG) | 0.608
17 | TTGCCGACTTGGGTTCTAACCTGTTGCCA (site TTGCCGACTTG) | 0.503
18 | TTGCCGACTTGGGTTCTAACCTGTTGCCA (site TTGGCGACTTG) | 0.0806
19 | TTGCCGACTTGGGTTCTAACCTGTTGCCA (site TTGTCGACTTG) | 0.116
20 | TTGCCTTCTTGGGTTCTAACCTGTTGCCT (site TAGCCTTCTAG) | 0.106
21 | TTGCCTTCTTGGGTTCTAACCTGTTGCCT (site TCGCCTTCTAG) | 0.0687
22 | TTGCCTTCTTGGGTTCTAACCTGTTGCCT (site TGGCCTTCTAG) | 0.606
23 | TTGCCTTCTTGGGTTCTAACCTGTTGCCT (site TTGCCTTCTAG) | 0.686
24 | TTGGCAGCTTGGGTTCTAACCTGTTGCCT (site TTGGAAGCTAG) | 0.061
25 | TTGGCAGCTTGGGTTCTAACCTGTTGCCT (site TTGGCAGCTAG) | 2.08
26 | TTGGCAGCTTGGGTTCTAACCTGTTGCCT (site TTGGGAGCTAG) | 0.11
27 | TTGGCAGCTTGGGTTCTAACCTGTTGCCT (site TTGGTAGCTAG) | 0.0352

Row | Sequence | recombinant barcode read abundance (log10)
28 | TTGGCCTCTTGGGTTCTAACCTGTTGCCT (site GTGGCGTCTAG) | 0.15
29 | TTGGCCTCTTGGGTTCTAACCTGTTGCCT (site TTGGCCTCTAG) | 1.27
30 | TTGGCGACTTGGGTTCTAACCTGTTGCCA (site TTGACGACTTG) | 0.221
31 | TTGGCGACTTGGGTTCTAACCTGTTGCCA (site TTGCCGACTTG) | 0.0473
32 | TTGGCGACTTGGGTTCTAACCTGTTGCCA (site TTGGCGACTTG) | 0.118
33 | TTGGCGACTTGGGTTCTAACCTGTTGCCA (site TTGTCGACTTG) | 0.0276
34 | TTGGGAGCTTGGGTTCTAACCTGTTGCTG (site TTCGGAGCTCA) | 0.426
35 | TTGGGAGCTTGGGTTCTAACCTGTTGCTG (site TTGGGAGCTCA) | 2.92
36 | TTGGTACCTTGGGTTCTAACCTGTTGCCT (site TTGGTACCTAG) | 2.41
37 | TTGGTACCTTGGGTTCTAACCTGTTGCCT (site TTGGTCCCTAG) | 0.204
38 | TTGGTACCTTGGGTTCTAACCTGTTGCCT (site TTGGTGCCTAG) | 0.138
39 | TTGGTACCTTGGGTTCTAACCTGTTGCCT (site TTGGTTCCTAG) | 0.116
40 | TTGGTAGCTTGGGTTCTAACCTGTTGCCT (site TTGGAAGCTAG) | 0.255
41 | TTGGTAGCTTGGGTTCTAACCTGTTGCCT (site TTGGCAGCTAG) | 0.148
42 | TTGGTAGCTTGGGTTCTAACCTGTTGCCT (site TTGGGAGCTAG) | 0.127
43 | TTGGTAGCTTGGGTTCTAACCTGTTGCCT (site TTGGTAGCTAG) | 1.63
44 | TTGGTGCCTTGGGTTCTAACCTGTTGCCT (site TTGGTACCTAG) | 1.97
45 | TTGGTGCCTTGGGTTCTAACCTGTTGCCT (site TTGGTCCCTAG) | 0.0442
46 | TTGGTGCCTTGGGTTCTAACCTGTTGCCT (site TTGGTGCCTAG) | 2.13
47 | TTGGTGCCTTGGGTTCTAACCTGTTGCCT (site TTGGTTCCTAG) | 0.0399
48 | TTGTACCCTTGGGTTCTAACCTGTTGCCT (site TTCTTCCCTAG) | 0
49 | TTGTACCCTTGGGTTCTAACCTGTTGCCT (site TTGTACCCTAG) | 1.45
50 | TTGTCGTCTTGGGTTCTAACCTGTTGCCT (site ATGTAGTCTAG) | 0.0378
51 | TTGTCGTCTTGGGTTCTAACCTGTTGCCT (site TTGTCGTCTAG) | 1.25
52 | TTGTGAGCTTGGGTTCTAACCTGTTGCGC (site AGTCACACTCT) | 0.182
53 | TTGTGAGCTTGGGTTCTAACCTGTTGCGC (site TTGTGAGCTGC) | 1.68

Test: recombinant barcode read abundance after kanamycin selection (control-corrected) (log10(CPM+1)); higher = more efficient recombination; sequences stand for … in AGTGCAGAGAAAATCGGCCAGTTTTCTCTGCCTGCAGTCCGCATGCCGT…ATTTATGCAGCGGACTGCCTTTCTCCCAAAGTGATAAACCGGACAGTATCATGGACCGGTTTTCCCGGTAATCCGTATTTGCAAGGTTGGTTTCACT; site = the 11-nt target
Protocol: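 Same pooled E. coli target screen (IS621 bridge recombinase, kanamycin selection, control-corrected CPM, mean of 2 biological replicates). Here the two core-binding nucleotides of the LTG and RTG of the bridge RNA target-binding loop are mutated. Target and donor CT cores are held constant, and the other 9 guide positions match the target. The target is read from the library oligo sequence. Molecule = full bridge RNA written as DNA: nt 1-80 from the library oligo, rest WT scaffold.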

Row | Sequence | recombinant barcode read abundance (log10)
54 | AAACACACATGGGTTCTAACCTGTTGCCTAG [AAACACACTAG_LTGcore_CA_RTGcore_CT] (site AAACACACTAG) (LTG core: CA, RTG core: CT) | 0.327
55 | AAACACACTTGGGTTCTAACCTGTTGCCTAA [AAACACACTAG_LTGcore_CT_RTGcore_TT] (site AAACACACTAG) (LTG core: CT, RTG core: TT) | 1.12
56 | AAACACACTTGGGTTCTAACCTGTTGCCTCC [AAACACACTAG_LTGcore_CT_RTGcore_GG] (site AAACACACTAG) (LTG core: CT, RTG core: GG) | 1.45
57 | AAACACACTTGGGTTCTAACCTGTTGCCTCG [AAACACACTAG_LTGcore_CT_RTGcore_CG] (site AAACACACTAG) (LTG core: CT, RTG core: CG) | 1.01
58 | AAACACACTTGGGTTCTAACCTGTTGCCTGC [AAACACACTAG_LTGcore_CT_RTGcore_GC] (site AAACACACTAG) (LTG core: CT, RTG core: GC) | 0.456
59 | AAACACAGCTGGGTTCTAACCTGTTGCCTGC [AAACACACTAG_LTGcore_GC_RTGcore_GC] (site AAACACACTAG) (LTG core: GC, RTG core: GC) | 0.0607
60 | AAACACAGTTGGGTTCTAACCTGTTGCCTAC [AAACACACTAG_LTGcore_GT_RTGcore_GT] (site AAACACACTAG) (LTG core: GT, RTG core: GT) | 0.112
61 | AAACACAGTTGGGTTCTAACCTGTTGCCTAG [AAACACACTAG_LTGcore_GT_RTGcore_CT] (site AAACACACTAG) (LTG core: GT, RTG core: CT) | 0.804
62 | AAACACATCTGGGTTCTAACCTGTTGCCTAG [AAACACACTAG_LTGcore_TC_RTGcore_CT] (site AAACACACTAG) (LTG core: TC, RTG core: CT) | 0.222
63 | AAACAGTATTGGGTTCTAACCTGTTGCCTAG [AAACAGTCTAG_LTGcore_AT_RTGcore_CT] (site AAACAGTCTAG) (LTG core: AT, RTG core: CT) | 0.571
64 | AAACAGTCCTGGGTTCTAACCTGTTGCCTAG [AAACAGTCTAG_LTGcore_CC_RTGcore_CT] (site AAACAGTCTAG) (LTG core: CC, RTG core: CT) | 0.93
65 | AAACAGTCGTGGGTTCTAACCTGTTGCCTAG [AAACAGTCTAG_LTGcore_CG_RTGcore_CT] (site AAACAGTCTAG) (LTG core: CG, RTG core: CT) | 1.17
66 | AAACAGTCTTGGGTTCTAACCTGTTGCCTAA [AAACAGTCTAG_LTGcore_CT_RTGcore_TT] (site AAACAGTCTAG) (LTG core: CT, RTG core: TT) | 1.55
67 | AAACAGTCTTGGGTTCTAACCTGTTGCCTCT [AAACAGTCTAG_LTGcore_CT_RTGcore_AG] (site AAACAGTCTAG) (LTG core: CT, RTG core: AG) | 1.72

Source: the supplement of paper PMC11208160
